From patent publication US11478461B2, “[1.1.1] bicyclo compounds as indoleamine 2,3-dioxygenase inhibitors” (Merck Sharp & Dohme Corp., priority 2018, dated 2022)

Biological target: IDO1 (Homo sapiens, UniProt P14902)
Assay: IDO1 Cellular Assay in Hela Cells Stimulated with IFNγ
Format: cell-based
Details: IFNγ 100 ng/mL, 300 uM L-tryptophan, about 48 hours, fluorescence readout, read-out: IDO1 HELA Cell Assay, IC50
Summary of the method: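 HeLa cells stimulated with 100 ng/mL IFNγ, supplemented with 300 uM L-tryptophan, incubated 48 h at 37° C with ten 3-fold compound dilutions. Unstimulated cells served as Max-E control. Kynurenine detected by fluorescence (ex 400/em 510 nm) after overnight methyl isonipecotate reaction; IC50 by four-parameter logistic fit.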

Chain of IDO1 (P14902 whole entry): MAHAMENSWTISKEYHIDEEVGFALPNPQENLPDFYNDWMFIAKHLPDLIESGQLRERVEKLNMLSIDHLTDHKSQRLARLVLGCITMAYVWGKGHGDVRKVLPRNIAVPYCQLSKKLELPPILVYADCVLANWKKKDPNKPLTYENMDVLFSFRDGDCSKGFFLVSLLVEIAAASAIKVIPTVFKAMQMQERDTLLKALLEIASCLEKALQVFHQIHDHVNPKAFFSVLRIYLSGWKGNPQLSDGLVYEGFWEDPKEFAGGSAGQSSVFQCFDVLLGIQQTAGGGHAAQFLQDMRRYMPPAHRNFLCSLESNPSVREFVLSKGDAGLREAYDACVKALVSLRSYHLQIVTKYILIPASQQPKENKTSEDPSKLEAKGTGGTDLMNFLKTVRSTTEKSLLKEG

IC50 [nM]	SMILES
176	C[C@H](C(=O)Nc1ccc(F)cc1)C12CC(NC(=O)c3ccc4cccnc4c3)(C1)C2 [Example 147, (S)-N-(3-(1-((4-fluorophenyl)amino)-1-oxopropan-2-yl)bicyclo[1.1.1]pentan-1-yl)quinoline-7-carboxamide]
73.5	CCc1ccnc(C(=O)NC23CC(C(C)C(=O)Nc4ccc(F)cc4)(C2)C3)c1 (stereo not shown) [Example 117, 4-ethyl-N-[3-[2-(4-fluoroanilino)-1-methyl-2-oxo-ethyl]-1-bicyclo[1.1.1]pentanyl]pyridin-1-ium-2-carboxamide]
276	CC(C(=O)Nc1ccc(F)cc1)C12CC(NC(=O)c3cnnc4ccccc34)(C1)C2 (stereo not shown) [Example 135, N-[3-[2-(4-fluoroanilino)-1-methyl-2-oxo-ethyl]-1-bicyclo[1.1.1]pentanyl]cinnoline-4-carboxamide]
387	CC(C(=O)Nc1ccc(F)cc1)C12CC(NC(=O)c3ncccc3F)(C1)C2 (stereo not shown) [Example 137, 3-fluoro-N-[3-[2-(4-fluoroanilino)-1-methyl-2-oxo-ethyl]-1-bicyclo[1.1.1]pentanyl]pyridin-1-ium-2-carboxamide]
48.3	C[C@H](C(=O)Nc1ccc(F)cc1)C12CC(NC(=O)c3ccc(C#N)c(Cl)c3)(C1)C2 [Example 150, (S)-3-chloro-4-cyano-N-(3-(1-((4-fluorophenyl)amino)-1-oxopropan-2-yl)bicyclo[1.1.1]pentan-1-yl)benzamide]
232	CC(C(=O)Nc1ccc(F)cc1)C12CC(NC(=O)c3ccccn3)(C1)C2 (stereo not shown) [Example 129, N-[3-[2-(4-fluoroanilino)-1-methyl-2-oxo-ethyl]-1-bicyclo[1.1.1]pentanyl]pyridin-1-ium-2-carboxamide]
34.8	C[C@H](C(=O)Nc1ccc(F)cc1)C12CC(NC(=O)c3cccc(C(F)(F)F)n3)(C1)C2 [Example 152, (S)-N-(3-(1-((4-fluorophenyl)amino)-1-oxopropan-2-yl)bicyclo[1.1.1]pentan-1-yl)-6-(trifluoromethyl)picolinamide]
218	C[C@H](C(=O)Nc1ccc(F)cc1)C12CC(NC(=O)c3ccc(C(F)(F)F)nc3)(C1)C2 [Example 146, (S)-N-(3-(1-((4-fluorophenyl)amino)-1-oxopropan-2-yl)bicyclo[1.1.1]pentan-1-yl)-6-(trifluoromethyl)nicotinamide]
194	CC(C(=O)Nc1ccc(F)cc1)C12CC(NC(=O)Cc3ccccc3C(F)(F)F)(C1)C2 (stereo not shown) [Example 128, N-(4-fluorophenyl)-2-[3-[[2-[2-(trifluoromethyl)phenyl]acetyl]amino]-1-bicyclo[1.1.1]pentanyl]propanamide]
147	Cc1nc(C(=O)NC23CC(C(C)C(=O)Nc4ccc(F)cc4)(C2)C3)cs1 (stereo not shown) [Example 123, N-[3-[2-(4-fluoroanilino)-1-methyl-2-oxo-ethyl]-1-bicyclo[1.1.1]pentanyl]-2-methyl-thiazole-4-carboxamide]
247	CC(C(=O)Nc1ccc(F)cc1)C12CC(NC(=O)c3cccc4ccncc34)(C1)C2 (stereo not shown) [Example 130, N-[3-[2-(4-fluoroanilino)-1-methyl-2-oxo-ethyl]-1-bicyclo[1.1.1]pentanyl]isoquinolin-2-ium-8-carboxamide]

Second part, the compound before the results:

SMILES	IC50 [nM]
CC(C)OC(=O)NC12CC([C@H](C)C(=O)Nc3ccc(F)cc3)(C1)C2 [Example 79, isopropyl (S)-(3-(1-((4-fluorophenyl)amino)-1-oxopropan-2-yl)bicyclo[1.1.1]pentan-1-yl)carbamate]	20.4
C[C@H](C(=O)Nc1ccc(F)cc1)C12CC(NC(=O)c3ccc(F)c(F)c3)(C1)C2 [Example 69, (S)-3,4-Difluoro-N-(3-(1-((4-fluorophenyl)amino)-1-oxopropan-2-yl)bicyclo[1.1.1]pentan-1-yl)benzamide]	23.6
C[C@H](C(=O)Nc1ccc(F)cc1)C12CC(NC(=O)Nc3cccc(C(F)(F)F)c3)(C1)C2 [Example 87, (S)-N-(4-fluorophenyl)-2-(3-(3-(3-(trifluoromethyl)phenyl)ureido)bicyclo[1.1.1]pentan-1-yl)propanamide]	90.3
CC(NC(=O)c1ccc(F)cc1)C12CC(NC(=O)c3ccc(Cl)c(Cl)c3)(C1)C2 (single isomer, unassigned) [Example 22, 3,4-Dichloro-N-(3-(1-(4-fluorobenzamido)ethyl)bicyclo [1.1.1]pentan-1-yl) Benzamide]	28.7
O=C(NC12CC(C3(C(=O)Nc4ccc(F)c(F)c4)COC3)(C1)C2)c1cccc(Cl)c1 [Example 105, 3-(3-(3-Chlorobenzamido)bicyclo[1.1.1]pentan-1-yl)-N-(3,4-difluorophenyl)oxetane-3-carboxamide]	35.8
C[C@H](C(=O)Nc1ccc(F)c(F)c1)C12CC(NC(=O)c3ccc(Cl)c(Cl)c3)(C1)C2 [Example 97, (S)-3,4-dichloro-N-(3-(1-((3,4-difluorophenyl)amino)-1-oxopropan-2-yl)bicyclo[1.1.1]pentan-1-yl)benzamide]	260
Cc1cc(C(=O)NC23CC([C@@H](C)C(=O)Nc4ccc(F)cc4)(C2)C3)ccc1Cl [Example 45, 4-chloro-N-[3-[(1R)-2-(4-fluoroanilino)-1-methyl-2-oxo-ethyl]-1-bicyclo[1.1.l]pentanyl]-3-methyl-benzamide]	109
CC(C(=O)Nc1ccc(Cl)cc1)C12CC(NC(=O)c3cccc(C#N)c3)(C1)C2 (single isomer, unassigned) [Example 12, N-(3-(1-((4-chlorophenyl)amino)-1-oxopropan-2-yl)bicyclo[1.1.1]pentan-1-yl)-3-cyanobenzamide]	97.9
Cc1ccc(C(=O)NC23CC([C@@H](C)C(=O)Nc4ccc(F)cc4)(C2)C3)cc1F [Example 41, 3-fluoro-N-[3-[(1R)-2-(4-fluoroanilino)-1-methyl-2-oxo-ethyl]-1-bicyclo[1.1.l]pentanyl]-4-methyl-benzamide]	405
C[C@H](C(=O)Nc1ccc(F)cc1)C12CC(NC(=O)c3cncc(Cl)c3)(C1)C2 [Example 59, 5-chloro-N-[3-[(1S)-2-(4-fluoroanilino)-1-methyl-2-oxo-ethyl]-1-bicyclo[1.1.1]pentanyl]pyridin-1-ium-3-carboxamide]	6.52
C[C@@H](C(=O)Nc1ccc(F)cc1)C12CC(NC(=O)c3cccc(Cl)n3)(C1)C2 [Example 33, (R)-6-Chloro-N-(3-(1-((4-fluorophenyl)amino)-1-oxopropan-2-yl)bicyclo[1.1.1]pentan-1-yl)picolinamide]	7180
CC(C)(C(=O)Nc1ccc(F)cc1)C12CC(NC(=O)c3ccc(Cl)c(Cl)c3)(C1)C2 [Example 101, 3,4-Dichloro-N-(3-(1-((4-fluorophenyl)amino)-2-methyl-1-oxopropan-2-yl)bicyclo[1.1.1]pentan-1-yl)benzamide]	16.9
C[C@@H](C(=O)Nc1cnc(Cl)c(F)c1)C12CC(NC(=O)c3ccc(Cl)c(Cl)c3)(C1)C2 [Example 89, (R)-3,4-dichloro-N-(3-(1-((6-chloro-5-yl)amino)-1-oxopropan-2-yl)bicyclo[1.1.1]pentan-1-yl)benzamide]	65.4
C[C@@H](C(=O)Nc1ccc(F)cc1)C12CC(NC(=O)c3cc(F)cc(Cl)c3)(C1)C2 [Example 40, 3-chloro-5-fluoro-N-[3-[(1R)-2-(4-fluoroanilino)-1-methyl-2-oxo-ethyl]-1-bicyclo[1.1.1]pentanyl]benzamide]	2.35
C[C@H](C(=O)Nc1ccc(F)cc1)C12CC(NC(=O)c3ccc(Cl)nc3)(C1)C2 [Example 60, 6-chloro-N-[3-[(1S)-2-(4-fluoroanilino)-1-methyl-2-oxo-ethyl]-1-bicyclo[1.1.1]pentanyl]pyridin-1-ium-3-carboxamide]	157
C[C@H](C(=O)Nc1cccc(C(F)(F)F)c1)C12CC(NC(=O)c3ccc(Cl)c(Cl)c3)(C1)C2 [Example 99, (S)-3,4-dichloro-N-(3-(1-oxo-1-((3-(trifluoromethyl)phenyl)amino)propan-2-yl)bicyclo[1.1.1]pentan-1-yl)benzamide]	111
CC(C(=O)Nc1ccc(F)cc1)C12CC(NC(=O)c3cnn4ccccc34)(C1)C2 (stereo not shown) [Example 113, N-[3-[2-(4-fluoroanilino)-1-methyl-2-oxo-ethyl]-1-bicyclo[1.1.1]pentanyl]pyrazolo[1,5-a]pyridin-1-ium-3-carboxamide]	47.3
CC(C(=O)Nc1ccc(Cl)cc1)C12CC(NC(=O)c3cccc(Cl)c3)(C1)C2 (single isomer, unassigned) [Example 6, 3-Chloro-N-(3-(1-((4-chlorophenyl)amino)-1-oxopropan-2-yl)bicyclo [1.1.1]pentan-1-yl) Benzamide]	38.6
Cc1nc(C(=O)NC23CC(C4(NC(=O)c5ccc(F)cc5)CC4)(C2)C3)no1 [Example 30, N-(3-(1-(4-fluorobenzamido)cyclopropyl)bicyclo[1.1.1]pentan-1-yl)-5-methyl-1,2,4-oxadiazole-3-carboxamide]	47.7
Cc1ccnc(C(=O)NC23CC([C@H](C)C(=O)Nc4ccc(F)cc4)(C2)C3)n1 [Example 57, N-[3-[(1S)-2-(4-fluoroanilino)-1-methyl-2-oxo-ethyl]-1-bicyclo[1.1.1]pentanyl]-4-methyl-pyrimidin-1-ium-2-carboxamide]	15.7
C[C@@H](C(=O)Nc1ccc(F)cc1)C12CC(NC(=O)OC(C)(C)C)(C1)C2 (single isomer, unassigned) [Example 31]	> 10000
C[C@H](C(=O)Nc1ccc(F)cc1)C12CC(NC(=O)c3cc(F)cc(Cl)c3)(C1)C2 [Example 55, 3-chloro-5-fluoro-N-[3-[(1S)-2-(4-fluoroanilino)-1-methyl-2-oxo-ethyl]-1-bicyclo[1.1.1]pentanyl]benzamide]	152
O=C(NC1(C23CC(NC(=O)c4ccc(C(F)(F)F)cn4)(C2)C3)CC1)c1ccc(F)cc1 [Example 26, N-(3-(1-(4-fluorobenzamido)cyclopropyl)bicyclo[1.1.1]pentan-1-yl)-5-(trifluoromethyl)picolinamide]	377
